The values that follow are results of earlier work, collected in patent publication US20220409569A1, “Cannabinoid Products with High Bioavailability” (The Chemist's Cabinet, LLC, priority 2019, published 2022).

The conditions of this data set: oral administration.

As to `CCCCCc1cc(O)c2c(c1)OC(C)(C)[C@@H]1CCC(C)=C[C@@H]21` [THC, tetrahydrocannabinol], the bioavailability is 4%-12%.
With `C=C(C)[C@@H]1CCC(C)=C[C@H]1c1c(O)cc(CCCCC)cc1O` [CBD, cannabidiol], the bioavailability was about 6%.
